Laboratory results reported in patent US7598258B2, “Quinoline derivatives and quinazoline derivatives inhibiting autophosphorylation of macrophage colony stimulating factor receptor” (Kirin Beer Kabushiki Kaisha, priority 2002, dated 2009).

target: T1, mouse c-fms (Mus musculus, UniProt P09581); assay: Inhibition of c-fms autophosphorylation in macrophage-like cell line BAC-1.2F5 by M-CSF stimulation (ELISA); format: cell-based; conditions: BAC-1.2F5 cells, human recombinant M-CSF 50 ng/ml, read-out: c-fms autophosphorylation 50% inhibitory concentration (IC50)
T1 construct: Macrophage-like cell line BAC-1.2F5 which expresses c-fms as a M-CSF receptor on cell membranes; endogenous in cells; host or cells: BAC-1.2F5 mouse macrophage-like cell line
T1 sequence (P09581 20-977): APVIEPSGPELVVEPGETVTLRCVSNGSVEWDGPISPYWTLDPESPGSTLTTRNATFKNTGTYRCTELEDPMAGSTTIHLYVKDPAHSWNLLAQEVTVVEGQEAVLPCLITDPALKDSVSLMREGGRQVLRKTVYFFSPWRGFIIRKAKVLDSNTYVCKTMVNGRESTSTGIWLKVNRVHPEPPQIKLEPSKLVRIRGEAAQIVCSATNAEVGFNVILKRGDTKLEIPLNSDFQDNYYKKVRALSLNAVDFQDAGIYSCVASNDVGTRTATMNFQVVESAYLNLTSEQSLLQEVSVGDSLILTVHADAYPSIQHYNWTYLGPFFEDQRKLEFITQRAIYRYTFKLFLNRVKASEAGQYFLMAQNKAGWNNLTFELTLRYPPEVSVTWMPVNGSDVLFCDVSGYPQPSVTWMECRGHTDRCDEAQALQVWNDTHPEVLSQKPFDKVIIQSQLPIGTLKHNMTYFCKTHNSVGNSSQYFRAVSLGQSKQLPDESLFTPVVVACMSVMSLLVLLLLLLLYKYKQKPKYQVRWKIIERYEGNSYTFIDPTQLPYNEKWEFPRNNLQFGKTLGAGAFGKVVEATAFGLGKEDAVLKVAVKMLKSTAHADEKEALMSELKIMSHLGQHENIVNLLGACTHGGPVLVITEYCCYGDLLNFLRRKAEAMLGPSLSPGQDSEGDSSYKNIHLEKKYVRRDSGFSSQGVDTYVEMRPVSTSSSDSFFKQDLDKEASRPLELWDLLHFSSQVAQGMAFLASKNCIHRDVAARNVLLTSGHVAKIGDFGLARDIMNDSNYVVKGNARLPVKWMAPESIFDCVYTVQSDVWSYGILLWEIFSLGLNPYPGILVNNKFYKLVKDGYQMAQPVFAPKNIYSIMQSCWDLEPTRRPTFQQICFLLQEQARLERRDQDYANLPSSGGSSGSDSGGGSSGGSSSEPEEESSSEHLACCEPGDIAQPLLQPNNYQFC
In short: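 BAC-1.2F5 cells serum-starved (0.1% FCS) 12 h, preincubated with compound 1 h at 37° C, then stimulated 6 min with 50 ng/ml human recombinant M-CSF. Lysates captured on anti-phosphotyrosine plates, detected with anti-c-fms antiserum and peroxidase read-out at 450 nm. IC50 from inhibition normalised between ±M-CSF controls.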

Point of comparison: `COc1cc2nccc(Oc3ccc(NC(=O)N[C@H](C)c4ccc(F)cc4)cc3)c2cc1OC` [Example 3, N-{4-[(6,7-Dimethoxy-4-quinolyl)oxy]phenyl}-N′-[(1R)-1-(4-fluorophenyl)ethyl]urea], IC50 2.4 nM. Against it:
- COc1cc2nccc(Oc3ccc(NC(=O)N[C@@H](C)c4ccc(F)cc4)cc3)c2cc1OC [Example 2, N-{4-[(6,7-Dimethoxy-4-quinolyl)oxy]phenyl}-N′-[(1S)-1-(4-fluorophenyl)ethyl]urea] — within 1.5-fold, 2.2 nM
- COc1cc2nccc(Oc3ccc(NC(=O)N[C@@H](C)c4ccc([N+](=O)[O-])cc4)cc3)c2cc1OC [Example 35, N-{4-[(6,7-Dimethoxy-4-quinolyl)oxy]phenyl}-N′-[(1S)-1-(4-nitrophenyl)ethyl]urea] — 5-fold higher, 12.1 nM
- COc1cc2nccc(Oc3ccc(NC(=O)N[C@H](C)c4ccc([N+](=O)[O-])cc4)cc3)c2cc1OC [Example 36, N-{4-[(6,7-Dimethoxy-4-quinolyl)oxy]phenyl}-N′-[(1R)-1-(4-nitrophenyl)ethyl]urea] — 13-fold higher, 31.1 nM
- COc1cc2nccc(Oc3ccc(NC(=O)N[C@@H](C)c4ccc(C)cc4)cc3)c2cc1OC [Example 41, N-{4-[(6,7-Dimethoxy-4-quinolyl)oxy]phenyl}-N′-[(1S)-1-(4-methylphenyl)ethyl]urea] — within 1.5-fold, 2.8 nM
- COc1cc2nccc(Oc3ccc(NC(=O)N[C@H](C)c4ccc(C)cc4)cc3)c2cc1OC [Example 42, N-{4-[(6,7-Dimethoxy-4-quinolyl)oxy]phenyl}-N′-[(1R)-1-(4-methylphenyl)ethyl]urea] — 16-fold higher, 38.5 nM
- COc1cc2nccc(Oc3ccc(NC(=O)N[C@H](C)c4cccc(Br)c4)cc3)c2cc1OC [Example 45, N-[(1R)-1-(3-Bromophenyl)ethyl]-N′-{4-[(6,7-dimethoxy-4-quinolyl)oxy]phenyl}urea] — 9.2-fold higher, 22.2 nM
- COc1cc2nccc(Oc3ccc(NC(=O)N[C@@H](C)c4cccc(Br)c4)cc3)c2cc1OC [Example 46, N-[(1S)-1-(3-Bromophenyl)ethyl]-N′-{4-[(6,7-dimethoxy-4-quinolyl)oxy]phenyl}urea] — 3-fold higher, 7.3 nM
- COc1cc2nccc(Oc3ccc(NC(=O)N[C@@H](C)c4ccc(Cl)cc4)cc3)c2cc1OC [Example 47, N-[(1S)-1-(4-Chlorophenyl)ethyl]-N′-{4-[(6,7-dimethoxy-4-quinolyl)oxy]phenyl}urea] — 1.6-fold higher, 3.8 nM
- COc1cc2nccc(Oc3ccc(NC(=O)N[C@H](C)c4ccc(Cl)cc4)cc3)c2cc1OC [Example 48, N-[(1R)-1-(4-Chlorophenyl)ethyl]-N′-{4-[(6,7-dimethoxy-4-quinolyl)oxy]phenyl}urea] — 17-fold higher, 40 nM
- COc1cccc([C@H](C)NC(=O)Nc2ccc(Oc3ccnc4cc(OC)c(OC)cc34)cc2)c1 [Example 49, N-{4-[(6,7-Dimethoxy-4-quinolyl)oxy]phenyl}-N′-[(1S)-1-(3-methoxyphenyl)ethyl]urea] — within 1.5-fold, 3.2 nM
- COc1cccc([C@@H](C)NC(=O)Nc2ccc(Oc3ccnc4cc(OC)c(OC)cc34)cc2)c1 [Example 50, N-{4-[(6,7-Dimethoxy-4-quinolyl)oxy]phenyl}-N′-[(1R)-1-(3-methoxyphenyl)ethyl]urea] — 3-fold higher, 7.2 nM
